Assay results published in US20200085778A1, “Agent for Promoting Decomposition and Clearance of Amyloid-Beta” (Kao Corporation, priority 2017, published 2020).

Target: T1, aggregated amyloid-β (amyloid-β peptide, Human, 1-42) (Homo sapiens, UniProt P05067)
T1 construct: An amyloid-β peptide (Human, 1-42, Peptide Institute, Inc.); purchased Peptide Institute, Inc
Assay: thioflavin T (ThT) fluorescence assay of degrading aggregated amyloid
Format: biochemical
Conditions: final concentration 1, 10, or 100 μM, 37° C. for 7 days, vs 0.5% DMSO control; FIG. 1
Procedure: The direct activity of degrading aggregated amyloid by chlorogenic acid (5-CQA) was examined using a thioflavin T (ThT) fluorescence assay. An amyloid-β peptide (Human, 1-42, Peptide Institute, Inc.) was dissolved in dimethyl sulfoxide (DMSO) to 2.5 mM and was further adjusted to 250 μM with sterile water, followed by incubation at 37° C. for 7 days to promote the aggregation reaction. After the reaction, chlorogenic acid (5-CQA, Cayman Chemical Company) was added to the aggregated amyloid-β (10 mass %) at a final concentration of 1, 10, or 100 μM, followed by further incubation at 37° C. for 7 days. As a control, 0.5% DMSO, which was used as the solvent of the chlorogenic acid, was added. After the reaction, ThT (Sigma-Aldrich, final concentration: 5 μM) dissolved in 50 mM glycine buffer (pH 8.5) was added to the reaction solution in a 96-well plate (ThermoFisher Scientific), followed by a reaction at room temperature for 15 minutes while gently stirring under light shielding. After the reaction, fluorescence was detected at 450 nm (excitation) and 480 nm (emission) using a fluorescence plate reader (Ensight 3400, PerkinElmer Co., Ltd.) to measure the degree of aggregation of amyloid-β.

T1 sequence (P05067 672-713): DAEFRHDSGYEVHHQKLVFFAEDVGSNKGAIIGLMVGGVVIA

How did the “activity of degrading aggregated amyloid (degree of aggregation of amyloid-β, ThT fluorescence)” value turn out when `O=C(/C=C/c1ccc(O)c(O)c1)O[C@@H]1C[C@](O)(C(=O)O)C[C@@H](O)[C@H]1O` [chlorogenic acid, 5-caffeoylquinic acid] was run?
The value was “has an activity of degrading aggregated amyloid in a dose-dependent manner”.
